Measurements from patent US5843449A, “Proteins and novel peptides derived from autoantigen for use in immunotherapy of autoimmune diseases” (Akzo Nobel N.V., priority 1996, dated 1998).
Where “and” joins values, the source holds several entries; their conditions need not be identical. Identical values can stand only once.

What was measured:
Format in all cases: in vivo
Balb/c mice [1] = test: Arthritogenicity of HC gp-39 in Balb/c mice; conditions: for arthritis signs: mild (number of animals) / arthritis signs: none (number of animals) / arthritis signs: severe (number of animals): n = 4; for arthritis signs: mild (number of animals): mild: score per animal does not exceed 2; for arthritis signs: none (number of animals): none: score = 0; for arthritis signs: severe (number of animals): severe: score per animal ≥3
Method: (§1) 10 or 50 μg of purified HC gp-39 in a 100 μl volume PPBS (0.5M NaCl, 0.01M sodium phosphate buffer, pH 7.5) mixed 1:1 in incomplete Freunds adjuvant (IFA) was injected subcutaneously in the chest region in 2×4 female Balb/c mice (Harlan CPB, Zeist, The Netherlands) whereas 4 controls were injected with PBS (1:1 in IFA). Mice were examined daily for clinical signs of arthritis. Severity of arthritis was assessed by scoring each paw from 0-3 (according to the article by Glant et al). In short, score 0=no changes, score 1=erythema and swelling, score 2=swelling and appearance of deformities, score 3=immobility due to loss of flexion and extension.

Balb/c mice [2] = test: Tolerance to arthritis induction or progression after intranasal HC gp-39; conditions: for arthritis signs: mild (number of animals): mild: score per animal does not exceed 2; for arthritis signs: severe (number of animals): severe: score per animal ≥4; for arthritis onset (day): first signs appear - highest number of animals affected: monitored to day 31
Method: as §1
(§2) Twenty eight μg of protein was administered intranasally (2×10 μl) to 10 female Balb/c mice (anesthetized lightly with Enflurance) using a PT45 micro conduit and a Hamilton syringe. Antigen was administered on day -15, -10 and -5 prior to arthritis induction. Controls (n=10) were submitted to the same procedure but received the vehicle (PBS) only (Table 5).
Tolerance to arthritis induction in these same mice was then further monitored until day 31 following sensitization and mice were examined daily for clinical signs. Severity of arthritis was assessed as mentioned above.

Balb/c mice [3] = test: Immunological tolerance by intranasal HC gp-39, DTH assay (footpad swelling)
Method: as §2
Immunological tolerance was evaluated by measuring delayed type hypersensitivity (DTH) response following sensitization as described above on day 0, using 10 μg of protein. Sensitization on day 0 was followed by an injection of 10 μg HC gp-39 in […] in the left hind footpad on day 8 (challenge). DTH reactions were measured as the increase in footpad ([swelling left (mm×10^-3)-swelling right (mm×10^-3)]/swelling right (mm×10^-3))×100%. The footpad swelling was measured using an in house designed μmeter at 0, 24 and 48 hr after challenge.

[4] = controls (n = 10), non-tolerized, 10 μg HC gp-39 s.c.
[5] = tolerized (n = 10): 28 μg HC gp-39 intranasal x3, then 10 μg s.c.
[6] = controls (n = 10): PBS intranasal, 10 μg HC gp-39 s.c. day 0, 10 μg footpad challenge day 8
[7] = tolerized (n = 9): 28 μg HC gp-39 intranasal day -15, -10, -5, 10 μg s.c. day 0, 10 μg footpad day 8

HC gp-39: Human Cartilage glycoprotein 39, purified from culture supernatant of MG63 human osteosarcoma cells; target autoantigen in RA
arthritis signs: mild (number of animals) (Balb/c mice [1]; 10 μg s.c. in IFA): One and 1 | arthritis signs: none (number of animals) (Balb/c mice [1]; 10 μg s.c. in IFA): 0 | arthritis signs: severe (number of animals) (Balb/c mice [1]; 10 μg s.c. in IFA): Three out of 4 and 3 | arthritis signs: mild (number of animals) (Balb/c mice [1]; 50 μg s.c. in IFA): 0 | arthritis signs: none (number of animals) (Balb/c mice [1]; 50 μg s.c. in IFA): 0 | arthritis signs: severe (number of animals) (Balb/c mice [1]; 50 μg s.c. in IFA): all mice and 4 | arthritis onset (day) FP (fore paw), per animal (Balb/c mice [1]; 50 μg s.c. in IFA, n = 4 Balb/c mice): 15 to 20 days | frequency of symmetrical distribution of afflicted joints (Balb/c mice [1]; 50 μg s.c. in IFA, followed for 62 days): > 50% | arthritis signs: mild (number of animals) (Balb/c mice [2]; [4]): three and 3 | arthritis signs: none (number of animals) (Balb/c mice [2]; controls (n = 10), non-tolerized, 10 μg HC gp-39 s.c., no signs: score 0): 0 | arthritis signs: severe (number of animals) (Balb/c mice [2]; [4]): Seven and 7 | arthritis onset (day): first signs appear - highest number of animals affected (Balb/c mice [2]; controls (n = 10), non-tolerized, sensitized with 10 μg HC gp-39 s.c.): 13 to 16 days | arthritis onset (day): first signs appear - highest number of animals affected (Balb/c mice [2]; tolerized (n = 10): 28 μg HC gp-39 intranasal day -15, -10, -5, then 10 μg s.c.): 23 to 24 days | arthritis signs: mild (number of animals) (Balb/c mice [2]; [5]): two and 2 | arthritis signs: severe (number of animals) (Balb/c mice [2]; [5]): Three and 3 | delay of arthritis onset in tolerized animals, hind and fore paws respectively (Balb/c mice [2]; tolerized vs non-tolerized, FIG. 1): 7 to 9 days | DTH response (in words) (Balb/c mice [3]; control (non-tolerized) mice injected with HC gp-39 at day 0): strong, antigen-specific DTH response | DTH, mean % swelling 0 hr (Balb/c mice [3]; [6]): -1.3% | DTH, mean % swelling 24 hr (Balb/c mice [3]; [6]): 31.4% | DTH, mean % swelling 48 hr (Balb/c mice [3]; [6]): 38.6% | arthritis ankle (animals affected, adjacent to site of challenge) (Balb/c mice [3]; [6]): 4 out of 10 and 4/10 and four out of ten | DTH, mean % swelling 0 hr (Balb/c mice [3]; [7]): -0.05% | DTH, mean % swelling 24 hr (Balb/c mice [3]; [7]): 3.7% | DTH, mean % swelling 48 hr (Balb/c mice [3]; [7]): 1.5% | arthritis ankle (animals affected, adjacent to site of challenge) (Balb/c mice [3]; [7]): did not develop an arthritis and 0/9 and fully protected | DTH responses upon challenge (in words) (Balb/c mice [3]; tolerized by intranasal administration of HC gp-39): completely abrogated
